These are literature values, as cited in US20140018438A1, “METHOD OF DESTROYING BACTERIAL BIOFILM USING STERILE INTRAVENOUS OR INTRACAVERNOUS GLYCERIN” (priority 2012, published 2014).

Structures are written as SMILES.

For the series the following is noted: sterile product for intravenous administration, generally 3% concentration at 80-100 milliliters per hour.

On to `OCC(O)CO` [Glycerin], for which the “allergic reactions / safety profile” value was “free of allergic reactions”.
